Results published in US8283337B2, “Therapeutic or prophylactic agent for vasoconstriction” (Next21 K.K., priority 2007, dated 2012).

Key:
[1] = test system: rat macrophage-like cells (RAW264.7); assay: Vasospastic cell model, PGE2/PGD2 production by ELISA after erythrocyte lysis solution; assay type: cell-based; conditions: blood pretreated with 10 wt % sugar, medium 5 wt % sugar, lysis solution 18 hours
Method: A vasospastic cell model was constructed by using […] macrophage-like cells (RAW264.7) for study on whether trehalose has anti-inflammatory action.
Physiological saline (Sal), 10 wt % trehalose (Tre) and 10 wt % maltose (Mal) were added respectively to the blood collected from a rat (10 to 12 weeks of age, male) for pretreatment, and the mixture was processed in an ultrasonic homogenizer, to prepare an erythrocyte lysis solution. 1×10^6 or 2×10^6 of RAW264.7 cells were inoculated on a plate on the day before addition of the lysis solution, and were cultured in a medium comprising physiological saline, 5 wt % trehalose and 5 wt % maltose (respectively, as abbreviated to Sal, Tre and Mal) placed in an incubator (37° C., CO2: 5%). The culture medium used was Dulbecco's Modified Eagle Medium (D-MEM) comprising 10% fetal bovine serum (FBS), penicillin and streptomycin. The next day, the lysis solution was added in an amount of 1/10 of the medium, and the mixture was incubated in the incubator (37° C., CO2: 5%) for 18 hours. Then, the cells were washed with PBS; new medium was added; and the mixture was placed in the incubator (37° C., CO2: 5%). The medium was collected after one hour for ELISA analysis. The ELISA was carried out by using Prostaglandin E2 EIA kit-monoclonal (manufactured by Cayman) or Prostaglandin D2 EIA kit (manufactured by Cayman). […] For control, a lysis solution-untreated group (added respectively with physiological saline, trehalose and maltose) was also analyzed similarly (FIG. 8, FIG. 9: right column 3). Three or more independent tests were carried out to obtain the average, and the standard deviation obtained was expressed with error bars.

[2] = test system: normal human umbilical vein endothelial cells (HUVEC); assay: Vasospastic cell model, PGE2 production by ELISA after erythrocyte lysis solution; assay type: cell-based; conditions: lysis solution from blood pretreated with 10 wt % sugar, 6 hours
Method: A vasospastic cell model was constructed by using normal human umbilical vein endothelial cells (HUVEC), for study on whether trehalose has anti-inflammatory action.
Physiological saline (Sal), 10 wt % trehalose (tre) and 10 wt % maltose (Mal) were added respectively to the bloods collected from a rat (10 to 12 weeks of age, male) for pretreatment, and the mixture was processed in an ultrasonic homogenizer, to prepare an erythrocyte lysis solution. The HUVEC cells were inoculated on a plate in an amount of 1×10^5 cells on the day before the addition of the lysis solution and were cultured in an incubator (37° C., CO2: 5%). The culture medium used was endothelial cell basic medium (EBM-2) comprising 2% fetalbovine serum (FBS), hEGF (human epidermal growth factor), heparin, hydrocortisone, ascorbic acid, VEGF (vascular endothelial growth factor), R3-IGF-1 (recombinant insulin-like growth factor-1), gentamicin and amphotericin-B. The next day, the lysis solution in an amount of 1/10 of the medium was added to the HUVEC cells, and the mixture was incubated in an incubator (37° C., CO2: 5%) for 6 hours. The medium was then collected for ELISA analysis. […] The lysis solution-untreated group (added respectively with physiological saline, trehalose and maltose) was also analyzed similarly as a control group (FIG. 10: right column 3). […]

femoral artery = assay: Vasospasm model using rat femoral artery exposed to self blood; assay type: in vivo; conditions: 7 days after exposure; for arterial sectional area relative to saline-exposed artery: SD rat femoral artery
Source text: Twenty seven male SD rats of 10 weeks of age were divided into three groups randomly. These rats were properly anesthetized. The groin was cut open and then the femoral artery was divided and separated sufficiently from the surrounding soft tissue etc. The femoral artery was covered with a catheter. The catheter used was a 10 mm-length vinyl chloride cylindrical catheter. Self blood collected from femoral vein was fed into the space between the catheter and vascular adventitia and the bottom face of the cylinder was sealed with an adhesive agent. The adhesive agent used was a cyanoacrylate-based adhesive agent. The operations above were carried out aseptically and surgically. Then, the surgical injury was closed. The lumen of the blood-exposed femoral artery narrowed and the tunica intima and tunica media thickened, after peaking in about 7 days after exposure. This model is a model according to “Nakamura et al., Japan Neurosurgical Society, Abstract of 49th Annual Meeting 199, 1990”.
Left and right femoral arteries (FAs) of each rat were exposed to the substances shown in the following Table 1 by using the model above. 4% paraformaldehyde (PFA) solution was perfused, 7 days after commencement of exposure and each femoral artery was fixed and collected. The collected femoral artery (FA) was immersed in 4% PFA, and part of the femoral artery was immersed in sucrose solution and then embedded as frozen. A section of 5 μm in thickness was obtained with cryostat from the frozen femoral artery thus obtained. The section was subjected to hematoxylin-eosin staining (HE staining). The HE-stained sample was analyzed by using an image analyzer equipped with an image analysis program, and the sectional area of the lumen and the thickness of the tunica media in each tissue were determined. The radius of the blood vessel was determined from the peripheral length of the lumen of the blood vessel, and the lumen sectional area was calculated from it. In addition, the distance between the internal and external elastic layers was measured at four points, and the average thereof was determined, to obtain the thickness of the tunica media. There were cases when the blood vessel was cleaved or was not sufficiently fixed during analysis, and thus 6 samples, which were analyzed under favorable conditions, among 9 samples prepared in each group, were selected for collection of data.

cerebral vasospasm = assay: Rabbit subarachnoid hemorrhage model, intracerebral blood flow by perfusion-MRI; assay type: in vivo; conditions: group II, self blood + 15 wt % trehalose solution into cisterna magna, two days after second administration; blood + saline group approximately 60%
Method: Intracerebral blood flow was evaluated via perfusion-MRI method by using a rabbit subarachnoid hemorrhage model for analysis of the vasospasm-inhibiting action of trehalose.
After magnetic resonance imaging (MRI) of a NZW rabbit (14 weeks of age, approximately 3.0 kg, male) in the normal state, the occipital region was shaved and the cisterna magna was punctured, and blood samples [group I: self blood+physiological saline (blood+Sal), group II: self blood+15 wt % trehalose solution (blood+Tre) and group III: physiological saline (Sal)] were injected into different test animals respectively in an amount of 3 ml. Additionally, 2 ml of blood sample and physiological saline (total of 5 ml) were injected to the same test animals by a similar method, two days later. Two days after the second administration, the influence of trehalose on cerebral vasospasm was evaluated via perfusion-MRI method (cerebrovascular normality is calculated by injecting a contrast medium through otic vein into the brain and determining the degree of recovery in brightness quantitatively) by using a high-definition MRI apparatus for animals (4.7 tesla, resolution: 50 μm) manufactured by Varian. Three independent tests were carried out to obtain the average, and the standard deviation obtained was expressed with error bars.

basilar artery = assay: Rabbit subarachnoid hemorrhage model, histological analysis of basilar artery; assay type: in vivo; conditions: group II, self blood + 15 wt % trehalose solution
Method: The vasospasm-inhibiting action of trehalose was analyzed via a histological method by using a rabbit subarachnoid hemorrhage model.
After the occipital region of a NZW rabbit (14 weeks of age, approximately 3.0 kg, male) was shaved and the cisterna magna was punctured, blood samples [group I: self blood+physiological saline (blood+Sal), group II: self blood+15 wt % trehalose solution (blood+Tre) and group III: physiological saline (Sal)] were injected into different test animals respectively in an amount of 3 ml. Additionally, 2 ml of blood sample and physiological saline (total of 5 ml) were injected to the same test animal by a similar method, two days later. Two days after the second administration, the animals were perfused with 4% paraformaldehyde for stabilization, and the brain stem and the basilar arteries were collected. The tissue was embedded in paraffin, cut into a section of 5 μm in thickness, and observed after hematoxylin-eosin staining (HE staining) The results are shown in FIG. 12.

[3] = two days after second administration

SMILES | amount of PGD2 produced versus lysis solution-untreated control group [1] | amount of PGE2 produced versus lysis solution-untreated control group [1] | PGE2 production (induction of inflammatory reaction) versus lysis solution-untreated control group [2] | arterial sectional area relative to saline-exposed artery (femoral artery; group II, trehalose 3.75 wt % (blood:15% TL solution = 3:1)) [%] | tunica media thickness (after exposure to blood + trehalose / after exposure to physiological saline) (femoral artery; group II, trehalose 3.75 wt %) [times] | arterial sectional area relative to saline-exposed artery (femoral artery; group III, trehalose 7.5 wt % (blood:30% TL solution = 3:1)) [%] | tunica media thickness (after exposure to blood + trehalose / after exposure to physiological saline) (femoral artery; group III, trehalose 7.5 wt %) [times] | normality of cerebral blood vessel (brightness after treatment/before treatment), physiological saline group = 100% (cerebral vasospasm) | vasospasm with respect to group I (self blood + physiological saline) (basilar artery; basilar artery histology) | blood vessel diameter of basilar artery (HE staining) (basilar artery; [3]) | tunica media thickness of basilar artery (HE staining) (basilar artery; [3])
OC[C@H]1O[C@H](O[C@H]2[C@H](O)[C@@H](O)C(O)O[C@@H]2CO)[C@H](O)[C@@H](O)[C@@H]1O (mixture of isomers) [maltose, reference compound] | inflammatory reaction was also induced | inflammatory reaction was also induced | inflammatory reaction was induced | – | – | – | – | – | – | – | –
OC[C@H]1O[C@H](O[C@H]2O[C@H](CO)[C@@H](O)[C@H](O)[C@H]2O)[C@H](O)[C@@H](O)[C@@H]1O [trehalose] | not increased | not increased | induction of inflammatory reaction was suppressed | 86 | 0.93 | 39 | 1.74 | approximately 80% | suppressed definitely | no reduction of the blood vessel diameter | some increase in tunica media thickness
